Assay [1] deals with Breast subpanel. As to the kind of experiment: NCI-60 one-dose screen, breast subpanel. Particulars: 10 µM, 48 h. In kind it is cell-based, human. The procedure:
(§1) To explore the potential antiproliferative properties of the newly synthesized derivatives, they were submitted to the National Cancer Institute's (NCI) Developmental Therapeutics Program (DTP) for screening at 10 μM in a panel of approximately 60 human cancer cell lines from different cancer types. The results are reported as the growth percentage (GP), which is the growth of the treated cells with each compound for 48 h compared to the untreated controls (Figure 2). […] The initial screening results are summarized in Figure 2, and the mean GP values of each subpanel are depicted in Figure 3. The full reports are compiled in the Supplementary Section.
(§2) All the reported selenoesters (1–6) were submitted to the DTP of NCI. First, they were screened at a single dose (10^−5 M) against a panel of 60 cancer cell lines derived from different tumor types following the methodology available (https://dtp.cancer.gov/discovery_development/nci-60/methodology.htm). As all the compounds satisfied the threshold inhibition criteria established, they were further assessed at five concentrations (0.01, 0.1, 1, 10, and 100 µM) against the same cell panel to obtain their corresponding dose–response curves and three antitumor parameters (GI50, TGI, and LC50) by regression. GraphPad Prism 7.0 Software was used to represent the corresponding graphs.

The subject of assay [2] is Ovarian subpanel. As to the kind of experiment: NCI-60 one-dose screen, ovarian subpanel. In kind it is cell-based, human. The conditions noted are these: 10 µM, 48 h. The procedure: as §1, §2
Assay [3] has as its system HCC‐2998‐resistant colon cancer cells. In words: NCI-60 one-dose screen, HCC-2998. In kind it is cell-based, human. Particulars: 10 µM, 48 h. The procedure:
as §1, §2

Assay [4] has as its system NSCL (non‐small‐cell lung cancer) subpanel. As to the kind of experiment: NCI-60 five-dose assay, NSCL subpanel. In kind it is cell-based. Particulars: Homo sapiens, 48 h; for GI50: read-out: Mean GI50 NSCL; for LC50 (50% lethal concentration): read-out: Mean LC50 NSCL. As to the method:
(§3) All the compounds were selected for further testing since they fulfilled the set NCI one‐dose screening parameters for threshold inhibition. They were tested at five different concentrations (0.01, 0.1, 1, 10, and 100 μM) for 48 h against the same cell line panel and the dose–response curves along with three response parameters (50% growth inhibitory concentration [GI50], the 50% lethal concentration [LC50], and the total growth inhibition [TGI]) were calculated for every cancer cell line. The full reported data and corresponding graphs are compiled in Supporting Information S1. Average values of GI50, TGI, and LC50 values of all the reported selenoesters in all the subpanels are represented in Figure 4.
as §2

The test system of assay [5] is CNS subpanel. As to the kind of experiment: NCI-60 one-dose screen, CNS subpanel. In kind it is cell-based, human. The conditions noted are these: 10 µM, 48 h. As to the method:
as §1, §2

Assay [6] has as its system Colon subpanel. As to the kind of experiment: NCI-60 one-dose screen, colon subpanel. It is filed as cell-based, human. Particulars: 10 µM, 48 h. As to the method:
as §1, §2

Assay [7] relates to HaCaT cells. As to the kind of experiment: MTS cell viability assay in nonmalignant HaCaT cells. Particulars: 48 h, mean ± SD. It is filed as cell-based, human. The procedure:
(MTS) assay as previously described. Thus, the selenoesters were tested at seven different concentrations (1, 2.5, 5, 10, 25, 50, and 100 µM) during 48 h to determine their corresponding IC50 values.
The effect of each compound on the cell viability of HaCaT cells was tested using the MTS assay. The compounds (1–6) were dissolved in DMSO at a concentration of 10^−2 M, and serial dilutions were prepared. Briefly, the cells were seeded in a 96‐well plate at a density of 1 × 10^4 cells per well. After 24 h of incubation, the cells were treated with either DMSO or seven different concentrations of each selenoester (1, 2.5, 5, 10, 25, 50, and 100 µM) for 48 h in triplicate. At the end of the treatment duration, the media were removed and fresh media were added containing 20 μL of MTS (Promega, USA) per well. After 1 h incubation, the absorbances were read at a wavelength of 490 nm in a 96‐well multiscanner, and the ratio of viable cells was calculated. Data were obtained from at least three independent experiments performed in triplicate. The IC50 values were calculated using OriginPro 8.5.1 Software for nonlinear curve fitting, and Graphpad Prism 7.0 Software was used to represent the corresponding graphs.
(In general: Formazan colour is commonly taken as a measure of viable cells.)

Assay [8] concerns NCI‐60 human cancer cell lines. In words: NCI-60 one-dose screen, whole panel. In kind it is cell-based. The conditions noted are these: 10 µM, 48 h, whole NCI-60 panel. As to the method:
as §1, §2

For assay [9], the target named is T1, hCA I (Homo sapiens, UniProt P00915).
T1 construct: made in house
As to the kind of experiment: hCA I inhibition, stopped-flow CO2 hydration assay. In kind it is biochemical. The conditions noted are these: stopped flow technique, mean from three assays.
Experimental: (§4) An Applied Photophysics stopped‐flow instrument was used to assay the CA‐catalyzed CO2 hydration activity [52]. […] The uncatalyzed rates were determined in the same manner and subtracted from the total observed rates. Stock solutions of the inhibitor (0.1 mM) were prepared in distilled–deionized water, and dilutions up to 0.01 nM were done thereafter with the assay buffer. Inhibitor and enzyme solutions were preincubated together for 15 min at room temperature before the assay, to allow for the formation of the E–I complex. The inhibition constants were obtained by Nonlinear least‐squares methods using PRISM 3 and the Cheng‐Prusoff equation as reported earlier and represent the mean from at least three different determinations. All CA isoforms were recombinant proteins obtained in‐house, as reported earlier [54, 55, 56].

In assay [10] the test system is NSCL (non‐small‐cell lung cancer) subpanel. As to the kind of experiment: NCI-60 one-dose screen, NSCL subpanel. In kind it is cell-based, human. The conditions noted are these: 10 µM, 48 h. The procedure:
as §1, §2

In assay [11] the test system is Colon subpanel. In words: NCI-60 five-dose assay, colon subpanel. In kind it is cell-based. Particulars: Homo sapiens, 48 h; for GI50: read-out: Mean GI50 Colon; for CC50: read-out: Mean LC50 Colon. As to the method: as §3, §2
Assay [12] deals with Melanoma subpanel. As to the kind of experiment: NCI-60 one-dose screen, melanoma subpanel. In kind it is cell-based, human. Particulars: 10 µM, 48 h. As to the method:
as §1, §2

Assay [13] has as its target T2, hCA XII (Homo sapiens, UniProt O43570).
T2 construct: made in house
As to the kind of experiment: hCA XII inhibition, stopped-flow CO2 hydration assay. It is filed as biochemical. Particulars: stopped flow technique, mean from three assays.
Experimental: as §4

The subject of assay [14] is Ovarian subpanel. As to the kind of experiment: NCI-60 five-dose assay, ovarian subpanel. The conditions noted are these: Homo sapiens, 48 h; for GI50: read-out: Mean GI50 Ovarian; for LC50 (50% lethal concentration): read-out: Mean LC50 Ovarian. It is filed as cell-based. As to the method: as §3, §2
Assay [15] has as its system CNS subpanel. In words: NCI-60 five-dose assay, CNS subpanel. In kind it is cell-based. Particulars: Homo sapiens, 48 h; for GI50: read-out: Mean GI50 CNS; for LC50: read-out: Mean LC50 CNS. The procedure:
as §3, §2

The source of these data is PMC12676205, “New Se‐Compounds With Antileishmanial, Antitumor, and Carbonic Anhydrase Inhibitory Properties” (Archiv Der Pharmazie, 2025).

Bounds are passed on as bounds.

Broadly, the GI50 is the concentration giving 50% growth inhibition. Usually IC50 stands for the concentration needed to halve the response being measured. A high value points to a need for much substance. As a reminder, the Ki is the equilibrium dissociation constant of an inhibitor or competing ligand from its target. Higher therefore signals a looser hold on the target. The term LC50 denotes the concentration that kills 50% of the test population.

T1 sequence (P00915 whole entry): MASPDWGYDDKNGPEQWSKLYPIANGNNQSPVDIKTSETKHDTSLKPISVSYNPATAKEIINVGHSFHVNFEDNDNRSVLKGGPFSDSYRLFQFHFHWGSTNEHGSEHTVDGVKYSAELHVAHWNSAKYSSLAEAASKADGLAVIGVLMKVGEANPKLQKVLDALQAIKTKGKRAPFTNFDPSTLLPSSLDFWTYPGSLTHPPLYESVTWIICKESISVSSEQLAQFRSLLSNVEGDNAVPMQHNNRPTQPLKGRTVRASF
T2 sequence (O43570 25-354): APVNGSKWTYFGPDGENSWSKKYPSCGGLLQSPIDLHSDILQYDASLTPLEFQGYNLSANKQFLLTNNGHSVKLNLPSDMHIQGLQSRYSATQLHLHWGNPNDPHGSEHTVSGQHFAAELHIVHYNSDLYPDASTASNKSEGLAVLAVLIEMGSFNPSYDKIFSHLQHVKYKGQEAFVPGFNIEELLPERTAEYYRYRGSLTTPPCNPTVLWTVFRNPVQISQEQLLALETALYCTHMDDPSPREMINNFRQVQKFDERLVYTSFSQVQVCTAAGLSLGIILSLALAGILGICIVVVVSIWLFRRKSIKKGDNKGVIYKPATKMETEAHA

Consider `O=C(C[Se]C(=O)c1ccccc1)Nc1ccc([N+](=O)[O-])c(C(F)(F)F)c1` [Compound 2, Se‐(2‐((4‐nitro‐3‐(trifluoromethyl)phenyl)amino)‐2‐oxoethyl)benzoselenoate], for which the “average growth cell value, Breast” value in assay [1] was -83.18%. Moreover, the “average growth cell value, Ovarian” value in [2] is reported as -92.98%. Further, in assay [3], the “behaviour in HCC‐2998” value is given as “susceptible”. In addition, the GI50 in assay [4] was determined as 1.41 µM; in [11], 2.11 µM; in assay [14] it was 1.57 µM; in assay [15] it was 1.17 µM. Besides, the LC50 (50% lethal concentration) was 5.36 µM in assay [4] and 5.83 µM in assay [14]. Moreover, in assay [5], the “average growth cell value, CNS” value is reported as -94.42%. Also, in [6], the “average growth cell value, Colon” value is -81.88%. The IC50 in assay [7] (Homo sapiens, HaCaT) was 9.49 ± 0.42 µM. Also, in assay [8], the “mean GP (growth percentage)” value is reported as −91.96%. Further, the inhibition constant (Ki) is greater than 100 µM in [9] and 91.5 µM in [13]. Further, the “average growth cell value, NSCL” value in assay [10] was -96.34%. Besides, the CC50 in assay [11] came out at 7.68 µM. Besides, the “average growth cell value, Melanoma” value in assay [12] is -94.64%. In addition, the LC50 in [15] came to 5.17 µM.

As for `O=C(C[Se]C(=O)c1ccco1)Nc1ccc([N+](=O)[O-])c(C(F)(F)F)c1` [Compound 5, Se‐(2‐((4‐nitro‐3‐(trifluoromethyl)phenyl)amino)‐2‐oxoethyl)furan‐2‐carboselenoate], the “average growth cell value, Breast” value in assay [1] was -28.95%. The “average growth cell value, Ovarian” value in assay [2] is reported as -38.57%. Moreover, in [3], the “behaviour in HCC‐2998” value is listed as “susceptible”. For the same molecule, the GI50 in assay [4] came to 1.9 µM; in assay [11], 2.58 µM; in assay [14] it was 2.28 µM; in assay [15], 2.04 µM. In assay [5], the “average growth cell value, CNS” value is -59.61%. Further, the “average growth cell value, Colon” value in assay [6] is -17.82%. Further, the Ki in [9] was greater than 100 µM; in assay [13], 72.6 µM. In addition, the “average growth cell value, NSCL” value in [10] was -42.46%. For the same molecule, in [11], the CC50 stood at 46.5 µM. Besides, in assay [12], the “average growth cell value, Melanoma” value is recorded as -56.28%.

`O=C(C[Se]C(=O)c1ccco1)Nc1cccc(OC(F)(F)F)c1` [Compound 6, Se‐(2‐oxo‐2‐((3‐(trifluoromethoxy)phenyl)amino)ethyl)furan‐2‐carboselenoate]: the “average growth cell value, Breast” value in assay [1] was -10.87%. In addition, in [2], the “average growth cell value, Ovarian” value amounted to 5.95%. The GI50 in assay [4] was 3.64 µM; in assay [11] it was 7.93 µM; in assay [14], 8.37 µM; in assay [15] it was 3.08 µM. For the same molecule, in [5], the “average growth cell value, CNS” value is on record as -34.28%. In assay [6], the “average growth cell value, Colon” value is given as 31.61%. The inhibitory constant (Ki) is greater than 100 µM in assay [9] and 9.6 µM in [13]. In addition, the “average growth cell value, NSCL” value in assay [10] is -12.41%. In addition, the CC50 in assay [11] came out at 67.3 µM. In addition, the “average growth cell value, Melanoma” value in [12] is reported as -18.35%.

As to `N#Cc1ccc(NC(=O)C[Se]C(=O)c2ccccc2)cc1C(F)(F)F` [Compound 1, Se‐(2‐((4‐cyano‐3‐(trifluoromethyl)phenyl)amino)‐2‐oxoethyl)benzoselenoate], the “average growth cell value, Breast” value in assay [1] was -86.92%. Further, the “average growth cell value, Ovarian” value in [2] is given as -92.77%. Moreover, the “behaviour in HCC‐2998” value in assay [3] was “susceptible”. Moreover, the 50% growth inhibitory concentration (GI50) stood at 1.54 µM in assay [4], 1.98 µM in assay [11], 1.77 µM in assay [14] and 1.37 µM in [15]. For the same molecule, the LC50 (50% lethal concentration) in assay [4] turned out to be 5.61 µM; in [14], 6.4 µM. The “average growth cell value, CNS” value in assay [5] is -94.57%. The “average growth cell value, Colon” value in assay [6] is recorded as -95.24%. The same molecule yielded a half-inhibitory concentration (IC50) in assay [7] (Homo sapiens, HaCaT) of 11.8 ± 1.89 µM. For the same molecule, the “mean GP (growth percentage)” value in [8] is given as −94.16%. The Ki is greater than 100 µM in [9] and 51.1 µM in [13]. Also, in assay [10], the “average growth cell value, NSCL” value is -96.68%. Also, in assay [11], the CC50 was 6.79 µM. Moreover, the “average growth cell value, Melanoma” value in assay [12] is given as -94.28%. Besides, the LC50 in [15] amounted to 5.64 µM.

Take `O=C(C[Se]C(=O)c1ccccc1)Nc1cccc(OC(F)(F)F)c1` [Compound 3, Se‐(2‐oxo‐2‐((3‐(trifluoromethoxy)phenyl)amino)ethyl)benzoselenoate]: in assay [1], the “average growth cell value, Breast” value is -45.08%. Further, the “average growth cell value, Ovarian” value in [2] is given as -50.78%. The concentration for 50% growth inhibition (GI50) in [4] came out at 2.3 µM; in assay [11], 8.52 µM; in [14] it was 2.45 µM; in [15] it was 2.07 µM. For the same molecule, the LC50 (50% lethal concentration) in assay [4] amounted to 13.2 µM; in [14] it was 18.2 µM. Moreover, the “average growth cell value, CNS” value in assay [5] is -78.56%. In assay [6], the “average growth cell value, Colon” value was 25.15%. Besides, the half-inhibitory concentration (IC50) is 63.7 ± 4.32 µM in [7] and roughly 64 µM in [7] (Homo sapiens, HaCaT). Also, the “mean GP (growth percentage)” value in [8] is −43.99%. Besides, the Ki in [9] is greater than 100 µM; in assay [13] it was 17.4 µM. Besides, in [10], the “average growth cell value, NSCL” value is -57.44%. For the same molecule, the CC50 in assay [11] was 43.9 µM. For the same molecule, the “average growth cell value, Melanoma” value in assay [12] is -50.62%. Also, the LC50 in assay [15] was 9 µM.
